US6653442B1, “Protegrins” (priority 1993, dated 2003)
Ends that are not written are not given here.

Assays:
[1] = tested on: lipid polysaccharide (LPS) of E. coli strain 0.55B5; assay: Limulus amebocyte lysate (LAL) test for endotoxin binding; type: biochemical; conditions: LPS 0.05 endotoxin unit/ml
C. albicans, strain 820 = type: cell-based, Candida albicans; conditions: 90% fetal calf serum
Description: The units of activity in the radial diffusion assay were measured as described; 10 units correspond to a 1 mm diameter clear zone around the sample well.
The radial diffusion assay in agarose gels described in Example 1 was also used to test the activity of the purified protegrins.
Similarly, using C. albicans as a target organism, underlayers were prepared with 10 mM sodium phosphate with and without 10% normal human serum.

[2] = tested on: methicillin resistant Staphylococcus aureus (MRSA); assay: Minimal inhibitory concentration, MRSA; type: cell-based
Description: (§1) The minimal inhibitory concentrations (MICs) of a variety of protegrins were determined against the following organisms: methicillin resistant Staphylococcus aureus (MRSA), Pseudomonas aeruginosa (Psa), vancomycin resistant Enterococcus fecium (VREF), Candida albicans (Candid) and Escherichia coli (E. Co), and are shown in Table 9.

Escherichia coli (E. Co) = assay: Minimal inhibitory concentration, E. coli; type: cell-based
Description: as §1

[3] = tested on: Pseudomonas aeruginosa (Psa); assay: Minimal inhibitory concentration, Psa; type: cell-based
Description: as §1

[4] = tested on: Candida albicans (Candid); assay: Minimal inhibitory concentration, Candida; type: cell-based
Description: as §1

| Substance | minimal inhibitory concentration (MIC) MRSA [2] | minimal inhibitory concentration (MIC) E. Co (Escherichia coli (E. Co)) | minimal inhibitory concentration (MIC) Psa [3] | minimal inhibitory concentration (MIC) Candid [4] | further results |
| --- | --- | --- | --- | --- | --- |
| HNP-2: native human defensin used as control (CYCRIPACIAGERRYGTCIYQGRLWAFCC; ends and bridges not checked; cysteine pairing not given here; UniProt P59665 66-94, looked up) [reference compound] | – | – | – | – | gel formation in LAL test ([1]; 2.5 μg peptide in 0.2 ml): trace; gel formation in LAL test ([1]; 5 μg peptide in 0.2 ml): trace; gel formation in LAL test ([1]; 10 μg peptide in 0.2 ml): trace; activity against Candida albicans in fetal calf serum (FIG. 5c) (C. albicans, strain 820): lose their ability to inactivate C. albicans |
| HNP-3: native human defensin [reference compound] | – | – | – | – | gel formation in LAL test ([1]; 10 μg peptide in 0.2 ml): no gel |
| HNP-4: native human defensin (VCSCRLVFCRRTELRVGNCLIGGVSFTYCCTRV; ends and bridges not checked; cysteine pairing not given here; UniProt P12838 64-96, looked up) [reference compound] | – | – | – | – | gel formation in LAL test ([1]; 2.5 μg peptide in 0.2 ml): trace; gel formation in LAL test ([1]; 5 μg peptide in 0.2 ml): trace; gel formation in LAL test ([1]; 10 μg peptide in 0.2 ml): no gel |
| R-G-G-G-L-C-Y-A-R-K-G-F-A-V-C-V-G-R (RGGGLCYARKGFAVCVGR-NH2; cysteine pairing not given here) [IB-227] | >128 | 2.65 | 0.01 | – | – |
| R-G-G-G-L-C-Y-C-F-P-K-F-C-V-C-V-G-R (RGGGLCYCFPKFCVCVGR-NH2; cysteine pairing not given here) [IB-218] | 3.48 | – | 1.2 | 15.96 | – |
| R-G-G-G-L-C-Y-C-R-P-R-F-C-V-C-V-G-R-OH (RGGGLCYCRPRFCVCVGR-OH; cysteine pairing not given here) [IB-324] | – | 3.51 | – | 17.7 | – |
| R-G-G-G-L-C-Y-C-R-R-G-F-C-V-C-F-G-R (RGGGLCYCRRGFCVCFGR-NH2; cysteine pairing not given here) [IB-223] | 1.93 | – | 0.14 | 1.62 | – |
| R-G-G-G-L-C-Y-C-R-R-R-F-C-V-C-V-G-R-OH (RGGGLCYCRRRFCVCVGR-OH; cysteine pairing not given here) [IB-249] | – | 0.4 | – | 3.29 | – |
| R-G-G-G-L-C-Y-T-R-P-R-F-T-V-C-V-G-R (RGGGLCYTRPRFTVCVGR-NH2; cysteine pairing not given here) [IB-226] | 8.7 | 1.53 | 0.07 | – | – |
| R-G-G-R-L-C-Y-A-R-R-R-F-A-V-C-V-G-R (RGGRLCYARRRFAVCVGR) [IB-289] | – | 0.4 | 0.05 | 1.6 | – |
| R-G-G-R-L-C-Y-A-R-R-R-F-A-V-C-V-G-R-OH (RGGRLCYARRRFAVCVGR-OH; cysteine pairing not given here) [IB-288] | – | 0.4 | 0.05 | 1.6 | – |
| R-G-G-R-V-C-Y-C-R-G-R-F-C-V-C-V (RGGRVCYCRGRFCVCV) [IB-400] | 8 | – | 2 | – | – |
| R-G-G-R-V-C-Y-C-R-G-R-F-C-V-C-V-G-R (RGGRVCYCRGRFCVCVGR) [IB-398] | 8 | – | 1 | – | – |
| R-G-G-R-V-C-Y-C-R-G-R-F-C-V-C-V-OH (RGGRVCYCRGRFCVCV-OH; cysteine pairing not given here) [IB-401] | 64 | – | 1 | – | – |
